# Several values for one entry are separate records, joined by “and”; a condition that tells them apart may be missing. Identical values can stand only once. ± gives the expanded uncertainty stated by the source.
# Experiments:
# [1] = Liquid; for mass density: 298.15 K, 101.33 kPa, Vibrating tube method; for vapor or sublimation pressure: Closed cell (Static) method
# [2] = refractive index (Na D-line) (dimensionless); settings: 298.15 K; 101.33 kPa; Liquid; Standard Abbe refractometry
mass density [1],refractive index [2],vapor or sublimation pressure ([1]; 283.14 K),vapor or sublimation pressure ([1]; 283.16 K),vapor or sublimation pressure ([1]; 293.14 K),vapor or sublimation pressure ([1]; 293.15 K),vapor or sublimation pressure ([1]; 303.12 K),vapor or sublimation pressure ([1]; 303.15 K),vapor or sublimation pressure ([1]; 313.13 K),vapor or sublimation pressure ([1]; 313.2 K),vapor or sublimation pressure ([1]; 323.13 K),vapor or sublimation pressure ([1]; 323.17 K),vapor or sublimation pressure ([1]; 283.15 K),vapor or sublimation pressure ([1]; 313.15 K),vapor or sublimation pressure ([1]; 323.16 K),SMILES
655 ± 2 kg/m3,1.375 ± 0.002,,,,,,,,,,,,,,CCCCCC [hexane]
1701 ± 7 kg/m3 and 1670 ± 2 kg/m3,1.251 ± 0.002 and 1.253 ± 0.002,14.6 ± 0.2 kPa,14.4 ± 0.2 kPa,23.5 ± 0.3 kPa,23.4 ± 0.3 kPa,36.2 ± 0.3 kPa,36.3 ± 0.3 kPa,54.1 ± 0.4 kPa,54.4 ± 0.4 kPa,78.8 ± 0.5 kPa,78.9 ± 0.4 kPa,,,,FC(F)(F)C(F)(F)C(F)(F)C(F)(F)C(F)(F)C(F)(F)F [perfluorohexane]
1755 ± 2 kg/m3,1.268 ± 0.002,,,,2.72 ± 0.2 kPa,,4.72 ± 0.2 kPa,,,,,1.51 ± 0.2 kPa,7.86 ± 0.21 kPa,12.6 ± 0.21 kPa,FC(F)(F)C(F)(F)C(F)(F)C(F)(F)C(F)(F)C(F)(F)C(F)(F)C(F)(F)F [octadecafluorooctane]
